Read-outs that look alike come from different tables or passages of the source.
Columns and labels:
[1] = Inhibition of HCMV replication, plaque reduction assay (PRA, Hs-68 cells); format: cell-based, Human Cytomegalovirus (HCMV); conditions: human
In short: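 Hs-68 monolayers (80–90% confluent) were infected with ~50 PFU HCMV AD169 for 2 h at 37°, then given compound in DMEM/5% inactivated FBS, refreshed after 4 days and kept 4 more days. Plaques were counted after formaldehyde fixation and crystal violet staining. EC50 derives from percent plaque reduction versus untreated wells.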

HCMV (strain AD169) = assay: Inhibition of HCMV replication, ELISA assay (Hs-68 cells); format: cell-based, Human Cytomegalovirus (HCMV); conditions: read-out: ELISA CMV EC50
In short: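 Hs-68 fibroblasts at 80–90% confluency infected with HCMV AD169 at MOI 0.01 PFU/cell for 2 h, washed, then cultured 8 days at 37 °C with test compound in DMEM/5% FBS. Late protein p28 detected by ELISA (mAb UL99, HRP/OPD, 450 nm); EC50 from % inhibition of replication.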

[2] = Group 1 Table 2 entries, read-out: Cytotoxic at this concentration (footnote, PRA CMV)
[3] = Human betaherpesvirus 5, AD169, Hs68, Group 1 Table 2 entries
[4] = Human betaherpesvirus 5, AD169, Hs68, Group 1 Table 3 entries
[5] = Human betaherpesvirus 5, AD169, Hs68, Group 1 Table 5 entries
[6] = Group 1 Table 1 entries, read-out: Cytotoxic at this concentration (footnote *, PRA CMV)
[7] = Human betaherpesvirus 5, AD169, Hs68, Group 1 Table 1 entries

Nc1nc(-c2ccc(NC(=O)CCN(Cc3ccccc3)C(=O)OCc3ccccc3)cc2)cs1 [Example 16]
MCC at 192 h [1, 2]: 8 µM
EC50 (HCMV (strain AD169); [3]): 7 µM

O=C(CN(Cc1ccccc1)C(=O)C1CCCCC1)Nc1ccc(-c2cscn2)cc1 [Example 5]
EC50 (HCMV (strain AD169); [4]): > 63 µM

Nc1nc(-c2ccc(NC(=O)[C@@H](Cc3ccccc3)N(Cc3ccccc3)C(=O)C3CCCCC3)cc2)cs1 [Example 9]
EC50 (HCMV (strain AD169); [5]): 4 µM

Nc1nc(-c2ccc(NC(=O)CN(CC3CCCCC3)C(=O)C3CCCC3)cc2)cs1 [Example 63]
MCC at 192 h [1, 6]: 21 µM
EC50 (HCMV (strain AD169); [7]): 2.2 µM

Nc1nc(-c2ccc(NC(=O)CN(Cc3ccccn3)C(=O)C3CCCCC3)cc2)cs1 [Example 47]
EC50 (HCMV (strain AD169); [7]): 19 µM

CN(CC(=O)Nc1ccc(-c2csc(N)n2)cc1)C(=O)c1ccncc1 [Example 22]
MCC at 192 h [1, 6]: 110 µM
EC50 (HCMV (strain AD169); [7]): 110 µM

Nc1nc(-c2ccc(NC(=O)[C@H](Cc3ccccc3)NCc3ccccc3)cc2)cs1 [Example 6]
EC50 (HCMV (strain AD169); [5]): 0.14 µM

CC(C)(C)OC(=O)N[C@@H](Cc1ccccc1)C(=O)Nc1ccc(-c2csc(N)n2)cc1 [Example 3]
EC50 (HCMV (strain AD169); [5]): 0.14 µM

Nc1nc(-c2ccc(NC(=O)CCN(CC3CCCCC3)C(=O)c3cccnc3)cc2)cs1 [Example 24]
EC50 (HCMV (strain AD169); [3]): 0.45 µM

C[C@H](c1ccccc1)N(CC(=O)Nc1ccc(-c2csc(N)n2)cc1)C(=O)C1CCCCC1 [Example 52]
EC50 (HCMV (strain AD169); [7]): 1.3 µM

Nc1nc(-c2ccc(NC(=O)CCN(Cc3ccccc3)Cc3ccccc3)cc2)cs1 [Example 2]
EC50 (HCMV (strain AD169); [3]): 0.55 µM

CC(C)(C)OC(=O)N[C@H](Cc1ccccc1)C(=O)Nc1ccc(-c2csc(N)n2)cc1 [Example 4]
EC50 (HCMV (strain AD169); [5]): 0.25 µM

Nc1nc(-c2ccc(NC(=O)CNCCCc3ccccc3)cc2)cs1 [Example 3]
MCC at 192 h [1, 6]: 14 µM
EC50 (HCMV (strain AD169); [7]): 1.8 µM

CC(C)(C)C(=O)N(CC(=O)Nc1ccc(-c2csc(N)n2)cc1)Cc1ccccc1 [Example 41]
EC50 (HCMV (strain AD169); [7]): 14 µM

Nc1nc(-c2ccc(NC(=O)CN(Cc3ccccc3)C(=O)c3ccccc3)cc2)cs1 [Example 23]
EC50 (HCMV (strain AD169); [7]): 12 µM

Nc1nc(-c2ccc(NC(=O)CCNCc3ccccc3)cc2)cs1 [Example 1]
EC50 (HCMV (strain AD169); [3]): 3.2 µM

CC(C)C(=O)N(CC(=O)Nc1ccc(-c2csc(N)n2)cc1)Cc1ccccc1 [Example 43]
EC50 (HCMV (strain AD169); [7]): 25 µM

CCCC(CCC)NCCC(=O)Nc1ccc(-c2csc(N)n2)cc1 [Example 23]
MCC at 192 h [1, 2]: 9 µM
EC50 (HCMV (strain AD169); [3]): 4 µM

CN(C(=O)CN(Cc1ccccc1)C(=O)C1CCCCC1)c1ccc(-c2csc(N)n2)cc1 [Example 1]
EC50 (HCMV (strain AD169); [4]): > 46 µM

Nc1nc(-c2ccc(NC(=O)CN(Cc3ccccc3)C(=O)c3ccc(F)cc3)cc2)cs1 [Example 24]
EC50 (HCMV (strain AD169); [7]): 14 µM

Nc1nc(-c2ccc(NC(=O)CN(CC3CCCCC3)C(=O)c3ccccc3)cc2)cs1 [Example 60]
EC50 (HCMV (strain AD169); [7]): 3 µM

Nc1nc(-c2ccc(NC(=O)CN(Cc3ccc(F)cc3)C(=O)c3ccncc3)cc2)cs1 [Example 84]
EC50 (HCMV (strain AD169); [7]): 5.6 µM

C[C@H](NCC(=O)Nc1ccc(-c2csc(N)n2)cc1)c1ccccc1 [Example 10]
MCC at 192 h [1, 6]: 30 µM
EC50 (HCMV (strain AD169); [7]): 2.2 µM

CC(=O)N(CC(=O)Nc1ccc(-c2csc(N)n2)cc1)Cc1ccccc1 [Example 44]
EC50 (HCMV (strain AD169); [7]): 16 µM

Nc1nc(-c2ccc(NC(=O)CNCc3ccccc3)cc2)cs1 [Example 1]
EC50 (HCMV (strain AD169); [7]): 25 µM

Nc1nc(-c2ccc(NC(=O)CN(Cc3ccccc3)Cc3ccccc3)cc2)cs1 [Example 16]
EC50 (HCMV (strain AD169); [7]): 3.8 µM

C[C@@H](c1ccccc1)N(CC(=O)Nc1ccc(-c2csc(N)n2)cc1)C(=O)C1CCCCC1 [Example 53]
EC50 (HCMV (strain AD169); [7]): 3.2 µM

Nc1nc(-c2ccc(NC(=O)CN(Cc3ccccc3)C(=O)c3cc[n+]([O-])cc3)cc2)cs1 [Example 30]
EC50 (HCMV (strain AD169); [7]): 77 µM

Nc1nc(-c2ccc(NC(=O)CN(Cc3cccs3)C(=O)C3CCCCC3)cc2)cs1 [Example 51]
EC50 (HCMV (strain AD169); [7]): 6 µM

CC(C)(C)NC(=S)N(CC(=O)Nc1ccc(-c2csc(N)n2)cc1)Cc1ccccc1 [Example 93]
EC50 (HCMV (strain AD169); [7]): 0.25 µM

Nc1nc(-c2ccc(NC(=O)CCN(C(=O)c3cccnc3)C3Cc4ccccc4C3)cc2)cs1 [Example 12]
EC50 (HCMV (strain AD169); [3]): 6.5 µM

Nc1nc(-c2ccc(NC(=O)CCN(Cc3ccccc3)C(=O)c3ccccc3)cc2)cs1 [Example 3]
EC50 (HCMV (strain AD169); [3]): 1.2 µM

Nc1nc(-c2ccc(NC(=O)CN(CC3CCCCC3)C(=O)Cc3ccccc3)cc2)cs1 [Example 77]
EC50 (HCMV (strain AD169); [7]): 6.1 µM

C[C@@H](NCC(=O)Nc1ccc(-c2csc(N)n2)cc1)c1ccccc1 [Example 11]
EC50 (HCMV (strain AD169); [7]): 19 µM

CC(=O)Nc1nc(-c2ccc(NC(=O)CN(Cc3ccccc3)C(C)=O)cc2)cs1 [Example 18]
EC50 (HCMV (strain AD169); [4]): 2.8 µM

Nc1nc(-c2ccc(NC(=O)CN(Cc3cccnc3)C(=O)C3CCCCC3)cc2)cs1 [Example 48]
EC50 (HCMV (strain AD169); [7]): 5 µM

Nc1nc(-c2ccc(NC(=O)CN(CC3CCCCC3)C(=O)C3CCNCC3)cc2)cs1 [Example 62]
EC50 (HCMV (strain AD169); [7]): 2.2 µM
